Laboratory results taken from publication PMC5784442 (ACS catalysis, 2017).

Tests used:
[1] = target: T1, ‘TesA (Escherichia coli, UniProt P0ADA1); test: DTNB assay at […] nm, free CoA release; format: biochemical; conditions: 0-120 µM substrate, 40 nM enzyme
T1 sequence (P0ADA1 27-208): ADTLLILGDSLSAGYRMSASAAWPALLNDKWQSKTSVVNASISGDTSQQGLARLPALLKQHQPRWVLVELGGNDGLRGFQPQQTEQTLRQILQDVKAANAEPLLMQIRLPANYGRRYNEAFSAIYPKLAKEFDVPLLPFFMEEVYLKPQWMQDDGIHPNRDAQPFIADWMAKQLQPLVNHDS

[2] = target: T1, ‘TesA; test: X-ray crystal structure, […] A; format: binding; conditions: 3 mM octanoic acid, Homo-PIPES pH 5.0

SMILES | DTNB assay at 412 nm, free CoA release [1] | X-ray crystal structure, 1.65 A [2]
CCCCCCCC(=O)SCCNC(=O)CCNC(=O)[C@H](O)C(C)(C)COP(=O)(O)OP(=O)(O)OC[C@H]1O[C@@H](n2cnc3c(N)ncnc32)[C@H](O)[C@@H]1OP(=O)(O)O [C8-CoA, octanoyl-CoA] | ‘TesA WT and R3.M4 activity on C8-CoA | –
CCCCCCCCCCCC(=O)SCCNC(=O)CCNC(=O)[C@H](O)C(C)(C)COP(=O)(O)OP(=O)(O)OC[C@H]1O[C@@H](n2cnc3c(N)ncnc32)[C@H](O)[C@@H]1OP(=O)(O)O [C12-CoA, dodecanoyl-CoA] | highest in vitro ‘TesA WT activity (Figure 7A) was observed for C12-CoA, C14-CoA and C16-CoA | –
CCCCCCCC(=O)O [C8, octanoic acid] | – | Crystal structures of WT ‘TesA and R3.M4 bound to octanoic acid were solved
